# Results taken from patent publication US20160243254A1, “Theranostic Nanoprobes for Overcoming Cancer Multidrug Resistance and Methods” (Massachusetts Institute of Technology, priority 2015, published 2016).
# Key:
# [1] = tested on: resistant MDA-MB-231 mammary fat pad tumors; assay: Tumor growth in orthotopic triple-negative breast cancer mice model after hydrogel implantation; type: in vivo, SCID mice; settings: day 14 post treatment
# Source text: In order to evaluate the efficiency of the dark-gold nanobeacon probes in sensing and in overcoming MDR in vivo, an orthotopic breast cancer mice model was developed by injecting resistant MDA-MD-231 cells to the mammary fat pad of female SCID hairless congenic mice. Efficacious and local delivery of the dark-gold nanobeacon probes was achieved by the implantation of a hydrogel disk on top of the triple-negative breast tumors. The hydrogel scaffold comprising polyamidoamine (PAMAM G5) dendrimer cross-linked with dextran aldehyde provided enhanced stability of the embedded nanoparticles.
# Tumors in the mammary fat pad were induced in female SCID hairless congenic mice by injection of 5×10^6 resistant MDA-MB-231 cells stably expressing firefly luciferase, suspended in 50 μL of HBBS (Lonza, GA, USA) solution. For determination of tumor growth, individual tumors were measured using caliper, and tumor volume was calculated by Tumor volume (mm^3)=width×(length^2)/2. Treatments began when tumor volume reached about 100 mm^3. […]
# In vivo imaging was used to track simultaneously tumor inhibition as measured by luciferase expression, nanobeacon probes before and after hybridization to the target and hydrogel stability monitored by fluorescence emission over a period of 14 days following hydrogel implantation.
# [2] = tested on: resistant MDA-MB-231 cells; assay: MTT cell viability assay; type: cell-based; settings: 5-FU resistant MDA-MB-231 cells compared to parental cells
# Procedure: Briefly, a standard MTT [3-(4,5-dimethylthiazol-2-yl)-2,5-diphenyltetrazoliumbromide] reduction assay was performed to determine the resistance status of the cells and the cytotoxicity of the gold nanobeacons.
# Cells were seeded at a density of 1×10^5 cells per well in 24-well culture plates in complete DMEM (500 μL) with serum. After 24 hours of exposure, the medium was removed and the cells were washed twice with sterile PBS and 300 μL of fresh medium with serum was added. Then 16.7 μL of sterile MTT stock solution (5 mg/mL in PBS) was added to each well.
# After incubation for an additional 2 hours, the medium was removed and the formazan crystals were resuspended in 300 μL of dimethyl sulfoxide (Sigma-Aldrich, USA). The solution was mixed and its absorbance was measured at 540 nm as a working wavelength and 630 nm as reference using a microplate reader (Varioskan Flash Multimode Reader, Thermo Scientific, MA, USA). The cell viability was normalized to that of cells cultured in the culture medium with PBS treatment.
# In order to corroborate confocal and flow cytometry data and overcome 5-FU resistance, resistant MDA-MB-231 cells were incubated with increasing amounts of dark-gold nanobeacons with and without 5-FU, and evaluated by the imaging system IVIS®.
compound,measurement,setting,value
"O=c1[nH]cc(F)c(=O)[nH]1 [5-FU, 5-fluorouracil]",effect on tumor (in words),[1],no effect
same,cell death after continuous exposure to drug,[2],absence of cell death
